From patent US12465614B2, “Budesonide 21-phosphate salts and pharmaceutical compositions containing the same” (GENETIC S.P.A., priority 2020, dated 2025) come the findings set out here.

Holding throughout (type): in vivo
Test [1] has as its system mice with OVA-induced allergic asthma. Kind of test: Lung hyperreactivity/Penh function, whole body plethysmography, intra-nasal FB, F, B (Experimental Groups II). Particulars: i.n. daily 2 weeks, all tested doses: FB 0.3, 1.0, 3.0 nmol/animal, vs untreated OVA group.
For test [2], the system named is OVA-sensitized mice. Kind of test: Bronchial relaxation to salbutamol, isolated bronchi of OVA-sensitized mice (Experimental Groups I). The note with it: 1 mg/Kg i.p.; rings precontracted with carbachol; vs OVA group; FIG. 10B.
The subject of test [3] is mice with OVA-induced allergic asthma. The experiment in a line: Circulating leukocyte cell counts (Experimental Groups II). On the procedure: (§1) Male Balb/c SPF mice (25*2 g, 6-week-old) were purchased from the animal house facilities at the São Paulo School of Medicine (Federal University of São Paulo, Brazil). They were group-housed in a temperature-controlled room at 22° C. with a 12/12-hour light/dark cycle and allowed free access to food and water. The study is in agreement with the Ethical Principles for Animal Research established by the Brazilian College for Animal Experimentation (COBEA). According to the internal laboratory rules, euthanasia is performed if severe distress related to the test agents developed during the experiment. […] The compounds were dissolved in DMSO (Sigma Chemical Co., St. Louis, MO) at concentrations at which the determined dose per animal results from the intraperitoneal administration of 100 μl of solution (1:10 DMSO) and intra-nasal (i.n.) administration of 10 μl/animal (5 μl/nostril) of the solutions. Mice were sensitized with two subcutaneous injections of 0.4 ml of OVA/Al(OH)3, with an interval of 7 days (Sham animals received the Al(OH)3 suspension in PBS with no OVA). Seven days after the second sensitization (i.e., 3rd week), the animals were nebulized twice a week with the 1% OVA solution (Sham and untreated OVA groups were nebulized with PBS) during 20 minutes for the next 2 weeks. Sixty minutes before the challenges (OVA nebulization) and daily during the next 4 weeks, mice were intra-nasally treated (10 μl/animal as 5 μl/nostril) with the respective compounds/vehicle. After Penh evaluation, the mice were anesthetized with inhaled isofluorane (5% v/v in O2) and blood samples were collected from the descending abdominal aorta. The mice were then euthanized by exsanguination (blood samples were collected from each animal for leukocyte cell counting), and bronchoalveolar lavage (BAL) was performed by exposing and cannulating the trachea with a polyethylene tube (1 mm outer diameter) connected to a syringe. The lungs were washed by flushing 300 μL of heparin-containing PBS solution (20 Ul/mL). The retrieved BAL lavage aliquots were obtained, and the same procedure was repeated four additional times. The samples were submitted to centrifugation (1000 g for 10 min) and the cell pellet was resuspended in 200 μL of PBS solution. Total cell counts were determined using a Neubauer chamber, and differential counting was carried out in cytospin (Fanem Mod 2400; São Paulo, Brazil) preparations stained with May-Grünwald dye. Leukocytes were classified based on normal morphological criteria.

The test system of the next test is IgE. Kind of test: Plasma IgE levels in OVA-sensitized mice, ELISA (Experimental Groups I). The note with it: 1 mg/Kg i.p.; vs OVA group; FIG. 10 panel C. As for the experimental part:
Female Balb/c (8-week-old, Charles River, Calco, Italy) were housed in the animal care facility of the Department of Pharmacy of the University of Naples, Italy in a controlled environment (temperature 21±2° C. and humidity 60±10%) and provided with standard rodent chow and water. All animals were allowed to acclimate for four days prior to experiments and were subjected to 12 h light−12 h dark schedule. Experiments were conducted during the light phase. The experimental procedures were approved by the Italian Ministry according to International and National law and policies (EU Directive 2010/63/EU and Italian DL 26/2014 for animal experiments). […] The compounds were dissolved in DMSO (Sigma Chemical Co., St. Louis, MO) at concentrations at which the determined dose per animal results from the intraperitoneal administration of 100 μl of solution (1:10 DMSO) and intra-nasal (i.n.) administration of 10 μl/animal (5 μl/nostril) of the solutions. […] Plasma levels of IgE were measured as index of sensitization. […] Total IgE levels were measured by means of ELISA using matched antibody pairs (BD Biosciences Pharmingen San Jose, CA).

Test [4] concerns OVA-sensitized mice. Particulars: mouse, in vivo.
Test [5] relates to mice with OVA-induced allergic asthma. The experiment in a line: BAL fluid cell counts (Experimental Groups II). The note with it: for total leukocytes in BAL fluid: vs untreated OVA group. As for the experimental part:
as §1

[6] abbreviates: i.n., all treatments: FB 0.3, 1.0, 3.0 nmol/animal, F and B 3.0 nmol/animal.

“Also recorded” adds a separate entry of the source.

Turning to “Budesonide 21-phosphate formoterol salt [FB]”, the “area under the Penh-metacholine concentration curve (AUC)” value in test [1] (B 3.0 nmol/animal) is “significantly reduced Penh at all the MCh doses tested; also recorded: abolished”. Also, the “Penh maximal response Emax to inhaled metacholine” value in test [1] (F and B 3.0 nmol/animal) is “Significant reduction of the maximal response Emax; also recorded: abolished”. Further, the “bronchial relaxation to salbutamol” value in the test on OVA-sensitized mice [2] is “significantly increased bronchial relaxation”. Besides, the circulating macrophages entry in test [3] (0.3 nmol/animal i.n.) was “potent lowering effect”; in test [3] (i.n., FB all tested doses (0.3, 1.0, 3.0 nmol/animal), B and F 3 nmol/animal), “significantly reduced the number of macrophages; also recorded: reduced the number of these cells to values lower than those observed in the control animals”. Also, the “total leukocytes in blood samples” value in test [3] (3 nmol/animal i.n., vs untreated OVA group) was “significantly reduced; also recorded: almost abolished”. Also, the circulating lymphocytes entry in test [3] (3 nmol/day i.n., vs untreated allergic animals) is “lower number of circulating cells than the untreated allergic animals”. The “circulating eosinophils vs control Sham animals” value in test [3] (highest dose (3 nmol/animal i.n.)) is recorded as “even lower than in the control Sham animals”. The circulating eosinophils entry in test [3] (setting [6]) is “decreased by FB treatment at all the tested doses”. The “OVA induced increase of IgE plasma levels” value with IgE is recorded as “significantly reduced OVA induced increase of IgE plasma levels”. Also, the “bronchial hyperreactivity (increased response of isolated bronchi to carbachol)” value with OVA-sensitized mice [4] is “Significant reduction of the bronchial hyperreactivity”. For the same compound, the “total leukocytes in BAL fluid” value in test [5] (0.3 nmol/animal i.n.) and in test [5] (3 nmol/animal i.n.) was “significantly reduced” throughout. Also, in test [5] (3 nmol/animal i.n.), the “OVA-induced increase of BAL macrophages” value is recorded as “abolished the OVA-induced increase of BAL macrophages”. For the same compound, the “eosinophils in BAL samples” value in test [5] (setting [6]) was “significantly controlled”.

On to `COc1ccc(CC(C)NCC(O)c2ccc(O)c(NC=O)c2)cc1` (stereo not shown) [F, N-[2-hydroxy-5-[1-hydroxy-2-[[2-(p-methoxyphenyl)-2-propy]-amino]-ethyl]-phenyl]-formamide, reference compound], for which the “bronchial relaxation to salbutamol” value in the test with OVA-sensitized mice [2] is reported as “did not ameliorate the lack of bronchial response to salbutamol”.
